Measurements: USRE50528E1, “Compounds and compositions for modulating EGFR mutant kinase activities” (Yuhan Corporation, priority 2014, dated 2025)
Where two headings read alike, the source gives them in different places.

Key:
EGFR mutant T790M = target: T1, EGFR mutant T790M (Homo sapiens, UniProt P00533, T790M); test: Kinase inhibition assay, EGFR mutant T790M; conditions: biochemical potency;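 note: truncated human EGFR mutant enzyme preincubated two hours with compound, then ATP plus ULight-PolyGT peptide for one hour, Europium-labeled antibody LANCE detection, IC50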
T1 construct: truncated human JAK3, EGFR mutants such as del E746-A750; purchased Carna Biosciences

SYK = target: T2, SYK (Homo sapiens, UniProt P43405); test: Kinase inhibition assay, SYK; type: biochemical; conditions: biochemical potency;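 note: purified full-length human SYK pre-incubated 30 min with compound, then ULight-TK peptide phosphorylation for 1 h, detected with Europium-labeled antibody in Lance buffer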
T2 construct: Purified human, full-length SYK, KDR; purchased Carna Biosciences

EGFR mutant L858R/T790M = target: T3, EGFR mutant L858R/T790M (Homo sapiens, UniProt P00533, L858R/T790M); test: Kinase inhibition assay, EGFR L858R/T790M; type: biochemical; conditions: read-out: EGFR mutants L858R/T790M;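 note: truncated human enzyme preincubated two hours with compound, then one hour with one millimolar ATP and ULight-PolyGT peptide, Europium-labeled antibody detection, IC50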
T3 construct: truncated human JAK3, EGFR mutants such as del E746-A750; purchased Carna Biosciences

EGFR mutant L858R = target: T4, EGFR mutant L858R (Homo sapiens, UniProt P00533, L858R); test: Kinase inhibition assay, EGFR L858R; type: biochemical; conditions: read-out: EGFR mutants L858R;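 note: truncated human EGFR L858R kinase with compound preincubation, ULight-PolyGT peptide phosphorylation read by Europium-antibody Lance detection, IC50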
T4 construct: truncated human JAK3, EGFR mutants such as del E746-A750; purchased Carna Biosciences

[1] = target: T5, EGFR mutant Del19 (E746-A750) (Homo sapiens, UniProt P00533, DEL746-750); test: Kinase inhibition assay, EGFR del E746-A750; type: biochemical; conditions: read-out: EGFR mutants Del19 (E746-A750);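 note: truncated human EGFR mutant kinase, two-hour preincubation with compound, then one-hour reaction with ATP and ULight-PolyGT peptide, LANCE Europium-antibody phosphorylation readout, IC50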
T5 construct: truncated human JAK3, EGFR mutants such as del E746-A750; purchased Carna Biosciences

| Compound | IC50 (EGFR mutant T790M) [nM] | IC50 (SYK) [nM] | IC50 (EGFR mutant L858R/T790M) [nM] | IC50 (EGFR mutant L858R) [nM] | IC50 [1] [nM] | IC50 (EGFR mutant L858R/T790M; biochemical potency, 1 mM ATP) [nM] | IC50 (EGFR mutant L858R; biochemical potency, 1 mM ATP) [nM] |
| --- | --- | --- | --- | --- | --- | --- | --- |
| C=CC(=O)Nc1ccc(OC)c(Nc2nccc(-n3ccc(C)n3)n2)c1 [Compound 9, N-(4-methoxy-3-(4-(3-methyl-1H-pyrazol-1-yl)pyrimidin-2-ylamino)phenyl)acrylamide] | 20 to 200 | > 1000 |  |  |  |  |  |
| C=CC(=O)Nc1ccc(OC)c(Nc2ncc(C)c(-n3cc(CN4CC(O)C4)cn3)n2)c1 [Compound 11, N-(3-(4-(4-((3-hydroxyazetidin-1-yl)methyl)-1H-pyrazol-1-yl)-5-methylpyrimidin-2-ylamino)-4-methoxyphenyl)acrylamide] | < 20 | 20 to 200 |  |  |  |  |  |
| C=CC(=O)Nc1cc(Nc2nccc(-n3cc(CN4CCC4)c(C)n3)n2)c(OC)cc1N(C)CCN(C)C [Compound 16, N-(5-(4-(4-(azetidin-1-ylmethyl)-3-methyl-1H-pyrazol-1-yl)pyrimidin-2-ylamino)-2-((2-(dimethylamino)ethyl)(methyl)amino)-4-methoxyphenyl)acrylamide] | 20 to 200 | > 1000 |  |  |  |  |  |
| C=CC(=O)Nc1cc(Nc2nccc(-n3cc(CN4CCC4)c(C)n3)n2)c(OC)cc1N1CCCCC1 [Compound 18, N-(5-(4-(4-(azetidin-1-ylmethyl)-3-methyl-1H-pyrazol-1-yl)pyrimidin-2-ylamino)-4-methoxy-2-(piperidin-1-yl)phenyl)acrylamide] | < 20 | > 1000 |  |  |  |  |  |
| C=CC(=O)Nc1cc(Nc2ncc(C)c(-n3cc(CN4C[C@@H](O)[C@@H](O)C4)cn3)n2)c(OC)cc1N1CCOCC1 [Compound 20, N-(5-(4-(4-(((3R,4S)-3,4-dihydroxypyrrolidin-1-yl)methyl)-1H-pyrazol-1-yl)-5-methylpyrimidin-2-ylamino)-4-methoxy-2-morpholinophenyl)acrylamide] | < 20 | 201 to 1000 |  |  |  |  |  |
| C=CC(=O)Nc1cc(Nc2ncc(C)c(-n3cc(CN4CC(O)C4)c(C)n3)n2)c(OC)cc1N1CCOCC1 [Compound 24, N-(5-(4-(4-((3-hydroxyazetidin-1-yl)methyl)-3-methyl-1H-pyrazol-1-yl)-5-methylpyrimidin-2-ylamino)-4-methoxy-2-morpholinophenyl)acrylamide] | < 20 | 201 to 1000 |  |  |  |  |  |
| C=CC(=O)Nc1cc(Nc2ncc(C)c(-n3cc(CN4CC[C@@H](O)C4)c(C)n3)n2)c(OC)cc1N1CCOCC1 [Compound 27, (R)—N-(5-(4-(4-((3-hydroxypyrrolidin-1-yl)methyl)-3-methyl-1H-pyrazol-1-yl)-5-methylpyrimidin-2-ylamino)-4-methoxy-2-morpholinophenyl)acrylamide] | < 20 | > 1000 |  |  |  |  |  |
| C=CC(=O)Nc1cc(Nc2nccc(-n3cc(CN4CC(O)C4)c(C)n3)n2)c(OC)cc1-c1cnn(C)c1 [Compound 58, N-(5-(4-(4-((3-hydroxyazetidin-1-yl)methyl)-3-methyl-1H-pyrazol-1-yl)pyrimidin-2-ylamino)-4-methoxy-2-(1-methyl-1H-pyrazol-4-yl)phenyl)acrylamide] | 20 to 200 | 201 to 1000 |  |  |  |  |  |
| C=CC(=O)Nc1cc(Nc2ncc(F)c(-n3cc(CN4C[C@H](O)[C@H](OC)C4)c(C)n3)n2)c(OC)cc1N1CCOCC1 [Compound 61, N-(5-(5-fluoro-4-(4-(((3S,4R)-3-hydroxy-4-methoxypyrrolidin-1-yl)methyl)-3-methyl-1H-pyrazol-1-yl)pyrimidin-2-ylamino)-4-methoxy-2-morpholinophenyl)acrylamide] | < 20 | > 1000 | 20 to 200 | 20 to 200 | 20 to 200 |  |  |
| C=CC(=O)Nc1cc(Nc2ncc(C)c(-n3cc(CN4CCC4)cn3)n2)c(OC(C)C)cc1N1CCOCC1 [Compound 63, N-(5-(4-(4-(azetidin-1-ylmethyl)-1H-pyrazol-1-yl)-5-methylpyrimidin-2-ylamino)-4-isopropoxy-2-morpholinophenyl)acrylamide] | 20 to 200 | > 1000 | 20 to 200 | 201 to 1000 | 20 to 200 |  |  |
| C=CC(=O)Nc1cc(Nc2nccc(-n3cc(CO)c(C)n3)n2)c(OC)cc1N1CCOCC1 [Compound 66, N-(5-(4-(4-(hydroxymethyl)-3-methyl-1H-pyrazol-1-yl)pyrimidin-2-ylamino)-4-methoxy-2-morpholinophenyl)acrylamide] | 20 to 200 | > 1000 | < 20 | 20 to 200 | < 20 |  |  |
| C=CC(=O)Nc1cc(Nc2nccc(-n3cc(CN4CC(F)C4)c(C)n3)n2)c(OC)cc1N1CCOCC1 [Compound 72, N-(5-(4-(4-((3-fluoroazetidin-1-yl)methyl)-3-methyl-1H-pyrazol-1-yl)pyrimidin-2-ylamino)-4-methoxy-2-morpholinophenyl)acrylamide] | 20 to 200 |  |  |  |  |  |  |
| C=CC(=O)Nc1cc(Nc2nccc(-n3cc(CN(C)C)c(-c4ccccc4)n3)n2)c(OC)cc1N1CCCC1 [Compound 98, N-(5-(4-(4-((dimethylamino)methyl)-3-phenyl-1H-pyrazol-1-yl)pyrimidin-2-ylamino)-4-methoxy-2-(pyrrolidin-1-yl)phenyl)acrylamide] | 20 to 200 |  | 20 to 200 | 20 to 200 | < 20 |  |  |
| C=CC(=O)Nc1cc(Nc2nccc(-n3cc(CN4CCC4)c(-c4ccccc4)n3)n2)c(OC)cc1N1CCCC1 [Compound 99, N-(5-(4-(4-(azetidin-1-ylmethyl)-3-phenyl-1H-pyrazol-1-yl)pyrimidin-2-ylamino)-4-methoxy-2-(pyrrolidin-1-yl)phenyl)acrylamide] | 20 to 200 |  | 20 to 200 | 20 to 200 | < 20 |  |  |
| C=CC(=O)Nc1cc(Nc2nccc(-n3cc(CN4CCC4)c(C(C)(C)C)n3)n2)c(OC)cc1N(C)CCOC [Compound 101, N-(5-(4-(4-(azetidin-1-ylmethyl)-3-tert-butyl-1H-pyrazol-1-yl)pyrimidin-2-ylamino)-4-methoxy-2-((2-methoxyethyl)(methyl)amino)phenyl)acrylamide] | < 20 | > 1000 | < 20 | < 20 | < 20 |  |  |
| C=CC(=O)Nc1cc(Nc2nccc(-n3cc(CN4CCC4)c(C(C)(C)C)n3)n2)c(OC)cc1N(C)C1COC1 [Compound 103, N-(5-(4-(4-(azetidin-1-ylmethyl)-3-tert-butyl-1H-pyrazol-1-yl)pyrimidin-2-ylamino)-4-methoxy-2-(methyl(oxetan-3-yl)amino)phenyl)acrylamide] | < 20 |  | < 20 | < 20 | < 20 |  |  |
| C=CC(=O)Nc1cc(Nc2nccc(-n3cc(CN(C)C)c(C(C)(C)C)n3)n2)c(OC)cc1N1CCCC1 [Compound 104, N-(5-(4-(3-tert-butyl-4-((dimethylamino)methyl)-1H-pyrazol-1-yl)pyrimidin-2-ylamino)-4-methoxy-2-(pyrrolidin-1-yl)phenyl)acrylamide] | < 20 | > 1000 |  |  |  |  |  |
| C=CC(=O)Nc1cc(Nc2nccc(-n3cc(CN4CCC4)c(C(C)(C)C)n3)n2)c(OC)cc1N1CCCC1 [Compound 105, N-(5-(4-(4-(azetidin-1-ylmethyl)-3-tert-butyl-1H-pyrazol-1-yl)pyrimidin-2-ylamino)-4-methoxy-2-(pyrrolidin-1-yl)phenyl)acrylamide] | 20 to 200 | > 1000 |  |  |  |  |  |
| C=CC(=O)Nc1cc(Nc2nccc(-n3cc(CN4CCC4)c(C4CC4)n3)n2)c(OC)cc1N1CCCC1 [Compound 111, N-(5-(4-(4-(azetidin-1-ylmethyl)-3-cyclopropyl-1H-pyrazol-1-yl)pyrimidin-2-ylamino)-4-methoxy-2-(pyrrolidin-1-yl)phenyl)acrylamide] | 20 to 200 | > 1000 |  |  |  |  |  |
| C=CC(=O)Nc1cc(Nc2nccc(-n3cc(CN(C)C)c(C(C)C)n3)n2)c(OC)cc1N1CCCC1 [Compound 116, N-(5-(4-(4-((dimethylamino)methyl)-3-isopropyl-1H-pyrazol-1-yl)pyrimidin-2-ylamino)-4-methoxy-2-(pyrrolidin-1-yl)phenyl)acrylamide] | < 20 | > 1000 |  |  |  |  |  |
| C=CC(=O)Nc1cc(Nc2nccc(-n3cc(CN4CCC4)c(C(C)C)n3)n2)c(OC)cc1N1CCCC1 [Compound 117, N-(5-(4-(4-(azetidin-1-ylmethyl)-3-isopropyl-1H-pyrazol-1-yl)pyrimidin-2-ylamino)-4-methoxy-2-(pyrrolidin-1-yl)phenyl)acrylamide] | < 20 | > 1000 |  |  |  |  |  |
| C=CC(=O)Nc1cc(Nc2ncc(F)c(-n3cc(C)c(CN(C)C)c3)n2)c(OC)cc1N(C)C [Compound 143, N-(2-(dimethylamino)-5-(4-(3-((dimethylamino)methyl)-4-methyl-1H-pyrrol-1-yl)-5-fluoropyrimidin-2-ylamino)-4-methoxyphenyl)acrylamide] | < 20 | 201 to 1000 |  |  |  |  |  |
| N-(2-((2-(dimethylamino)ethyl)(methyl)amino)-5-(4-(3-((dimethylamino)methyl)-4-(trifluoromethyl)-1H-pyrrol-1-yl)-5-fluoropyrimidin-2-ylamino)-4-methoxyphenyl)acrylamide [Compound 144] | < 20 |  |  |  |  |  |  |
| N-(5-(4-(4-(azetidin-1-ylmethyl)-3-methyl-1H-pyrazol-1-yl)pyrimidin-2-ylamino)-4-methoxy-2-(1H-pyrazol-1-yl)phenyl)acrylamide [Compound 53] | 20 to 200 | > 1000 |  |  |  | 20 to 200 | 20 to 200 |
